Experimental findings from patent US20120294879A1, “CONSENSUS SEQUENCE FOR INFLUENZA A VIRUS” (priority 2009, published 2012) are described below.

What all share (format): cell-based
Test [1] has as its system splenocytes of HLA-DR3 (DRB1*0301) transgenic mice. The arrangement: key to DR3: average IFN-γ spots forming cells per million splenocytes: — represents no positive ELISpot response.
The subject of test [2] is splenocytes of HLA-B7 (B*0702) transgenic mice. Also noted: key to B7: average IFN-γ spots forming cells per million splenocytes: — represents no positive ELISpot response.
In test [3] the test system is splenocytes of HLA-DR4 (DRB1*0401) transgenic mice. The arrangement: key: — represents no positive ELISpot response.
Test [4] has as its system splenocytes of HLA-DR2 (DRB1*1501) transgenic mice. The arrangement: key to DR2: average IFN-γ spots forming cells per million splenocytes: — represents no positive ELISpot response.
The test system of test [5] is splenocytes of HLA-A24 (A*2402) transgenic mice. The arrangement: key to A24: average IFN-γ spots forming cells per million splenocytes: — represents no positive ELISpot response.

SRPMFLYVRTNGTSKIK: the “DR3: average IFN-γ spots forming cells per million splenocytes” value (from here on “DR3 … per million splenocytes”) in test [1] is reported as “—”. The “B7: average IFN-γ spots forming cells per million splenocytes” value in test [2] is on record as “—”. The “DR4: average IFN-γ spots forming cells per million splenocytes” value (from here on “DR4 … per million splenocytes”) in test [3] is recorded as 114 ± 24(0.1) IFN-γ spots forming cells per million splenocytes. For the same sequence, the “DR2: average IFN-γ spots forming cells per million splenocytes” value (from here on “DR2 … per million splenocytes”) in test [4] is on record as “—”. The “A24: average IFN-γ spots forming cells per million splenocytes” value in test [5] is recorded as “—”.
As to LPDMTPSTEMSMRGVRV, in test [1], the “DR3 … per million splenocytes” value was 324 ± 28(0.1) IFN-γ spots forming cells per million splenocytes and the “DR3: lowest concentration of peptide giving positive ELISpot response in peptide titration” value (from here on “DR3: lowest concentration”) is recorded as 324 ± 28(0.1) μg/ml. Besides, the “B7: average IFN-γ spots forming cells per million splenocytes” value in test [2] is “—”. Besides, in test [3], the “DR4 … per million splenocytes” value is “—”. Besides, in test [4], the “DR2 … per million splenocytes” value is listed as “—”. Further, the “A24: average IFN-γ spots forming cells per million splenocytes” value in test [5] is recorded as “—”.
As for KRSYEQMETDGERQNAT, the “DR3 … per million splenocytes” value in test [1] is reported as “—”. In test [2], the “B7: average IFN-γ spots forming cells per million splenocytes” value is given as “—”. In test [3], the “DR4 … per million splenocytes” value is 52 ± 29(0.1) IFN-γ spots forming cells per million splenocytes. Further, in test [4], the “DR2 … per million splenocytes” value is recorded as “—”. Also, in test [5], the “A24: average IFN-γ spots forming cells per million splenocytes” value is “—”.
As for DYRYTYRCHRGDTQIQT, in test [1], the “DR3 … per million splenocytes” value is 166 ± 22(0.1) IFN-γ spots forming cells per million splenocytes and the “DR3: lowest concentration” value is on record as 166 ± 22(0.1) μg/ml. In addition, in test [2], the “B7: average IFN-γ spots forming cells per million splenocytes” value was “—”. In addition, the “DR4 … per million splenocytes” value in test [3] was 76 ± 2(0.1) IFN-γ spots forming cells per million splenocytes. Further, in test [4], the “DR2 … per million splenocytes” value is 109 ± 13(1) IFN-γ spots forming cells per million splenocytes and the “DR2: lowest concentration of peptide giving positive ELISpot response in peptide titration” value (from here on “DR2: lowest concentration”) is 109 ± 13(1) μg/ml. Also, in test [5], the “A24: average IFN-γ spots forming cells per million splenocytes” value is on record as “—”.
As to DKLTQGRQTYDWTLNRN, in test [1], the “DR3 … per million splenocytes” value is reported as 142 ± 6(0.1) IFN-γ spots forming cells per million splenocytes and the “DR3: lowest concentration” value is on record as 142 ± 6(0.1) μg/ml. In test [2], the “B7: average IFN-γ spots forming cells per million splenocytes” value was “—”. In addition, the “DR4 … per million splenocytes” value in test [3] is recorded as “—”. For the same sequence, the “DR2 … per million splenocytes” value in test [4] is “—”. Further, the “A24: average IFN-γ spots forming cells per million splenocytes” value in test [5] is reported as “—”.
Take LQLFIKDYRYTYRCHRG: in test [1], the “DR3 … per million splenocytes” value is reported as 230 ± 23(0.1) IFN-γ spots forming cells per million splenocytes and the “DR3: lowest concentration” value was 230 ± 23(0.1) μg/ml. Moreover, the “B7: average IFN-γ spots forming cells per million splenocytes” value in test [2] is “—”. The “DR4 … per million splenocytes” value in test [3] is recorded as 97 ± 30(0.1) IFN-γ spots forming cells per million splenocytes. Moreover, in test [4], the “DR2 … per million splenocytes” value is 61 ± 2(1) IFN-γ spots forming cells per million splenocytes and the “DR2: lowest concentration” value is given as 61 ± 2(1) μg/ml. Also, the “A24: average IFN-γ spots forming cells per million splenocytes” value in test [5] is given as “—”.
For RFYRTCKLLGINMSKKK, in test [1], the “DR3 … per million splenocytes” value is recorded as “—”. In addition, in test [2], the “B7: average IFN-γ spots forming cells per million splenocytes” value was “—”. Besides, the “DR4 … per million splenocytes” value in test [3] was “—”. Moreover, in test [4], the “DR2 … per million splenocytes” value was 231 ± 73(1) IFN-γ spots forming cells per million splenocytes and the “DR2: lowest concentration” value is given as 231 ± 73(1) μg/ml. Also, in test [5], the “A24: average IFN-γ spots forming cells per million splenocytes” value is “—”.
Take MGMIGILPDMTPSTEMS: the “DR3 … per million splenocytes” value in test [1] is given as “—”. Moreover, the “B7: average IFN-γ spots forming cells per million splenocytes” value in test [2] is on record as “—”. Further, in test [3], the “DR4 … per million splenocytes” value is 238 ± 5(0.1) IFN-γ spots forming cells per million splenocytes. For the same sequence, in test [4], the “DR2 … per million splenocytes” value is “—”. The “A24: average IFN-γ spots forming cells per million splenocytes” value in test [5] was “—”.
For NDLGPATAQMALQLFIK, the “DR3 … per million splenocytes” value in test [1] was “—”. The “B7: average IFN-γ spots forming cells per million splenocytes” value in test [2] is given as “—”. In addition, the “DR4 … per million splenocytes” value in test [3] is reported as “—”. For the same sequence, the “DR2 … per million splenocytes” value in test [4] was “—”. In test [5], the “A24: average IFN-γ spots forming cells per million splenocytes” value is reported as 92 ± 2(1) IFN-γ spots forming cells per million splenocytes and the “A24: lowest concentration of peptide giving positive ELISpot response in peptide titration” value (from here on “A24: lowest concentration”) is on record as 92 ± 2(1) μg/ml.
As to FFYRYGFVANFSMELPS, the “DR3 … per million splenocytes” value in test [1] is given as “—”. Also, the “B7: average IFN-γ spots forming cells per million splenocytes” value in test [2] was “—”. The “DR4 … per million splenocytes” value in test [3] is recorded as “—”. The “DR2 … per million splenocytes” value in test [4] is listed as “—”. For the same sequence, in test [5], the “A24: average IFN-γ spots forming cells per million splenocytes” value is 210 ± 25 IFN-γ spots forming cells per million splenocytes and the “A24: lowest concentration” value was “(0.1) μg/ml”.
For the sequence EVHIYYLEKANKIKSEK, the “DR3 … per million splenocytes” value in test [1] was “—”. Moreover, in test [2], the “B7: average IFN-γ spots forming cells per million splenocytes” value is reported as “—”. For the same sequence, in test [3], the “DR4 … per million splenocytes” value is reported as 37 ± 11(0.1) IFN-γ spots forming cells per million splenocytes. The “DR2 … per million splenocytes” value in test [4] is recorded as “—”. Further, the “A24: average IFN-γ spots forming cells per million splenocytes” value in test [5] is on record as “—”.
For the sequence RMIGGIGRFYIQMCTEL, the “DR3 … per million splenocytes” value in test [1] was “—”. Moreover, the “B7: average IFN-γ spots forming cells per million splenocytes” value in test [2] was “—”. Besides, the “DR4 … per million splenocytes” value in test [3] is listed as “—”. In addition, the “DR2 … per million splenocytes” value in test [4] is reported as “—”. In test [5], the “A24: average IFN-γ spots forming cells per million splenocytes” value was 45 ± 5 IFN-γ spots forming cells per million splenocytes and the “A24: lowest concentration” value is on record as “(0.1) μg/ml”.
On to IGVTVIKNNMINNDLGP, for which the “DR3 … per million splenocytes” value in test [1] is given as “—”. For the same sequence, the “B7: average IFN-γ spots forming cells per million splenocytes” value in test [2] was “—”. In addition, the “DR4 … per million splenocytes” value in test [3] is “—”. Also, in test [4], the “DR2 … per million splenocytes” value is 159 ± 53(0.1) IFN-γ spots forming cells per million splenocytes and the “DR2: lowest concentration” value was 159 ± 53(0.1) μg/ml. For the same sequence, the “A24: average IFN-γ spots forming cells per million splenocytes” value in test [5] is reported as “—”.
Regarding GPAKNMEYDAVATTHSW, in test [1], the “DR3 … per million splenocytes” value is given as 142 ± 45(0.1) IFN-γ spots forming cells per million splenocytes and the “DR3: lowest concentration” value is recorded as 142 ± 45(0.1) μg/ml. The “B7: average IFN-γ spots forming cells per million splenocytes” value in test [2] was “—”. For the same sequence, the “DR4 … per million splenocytes” value in test [3] was 41 ± 9(0.1) IFN-γ spots forming cells per million splenocytes. Besides, in test [4], the “DR2 … per million splenocytes” value was “—”. Also, in test [5], the “A24: average IFN-γ spots forming cells per million splenocytes” value is on record as “—”.
Turning to GRFYIQMCTELKLNDYE, in test [1], the “DR3 … per million splenocytes” value was 66 ± 7(1) IFN-γ spots forming cells per million splenocytes and the “DR3: lowest concentration” value is 66 ± 7(1) μg/ml. The “B7: average IFN-γ spots forming cells per million splenocytes” value in test [2] was “—”. For the same sequence, in test [3], the “DR4 … per million splenocytes” value was “—”. For the same sequence, in test [4], the “DR2 … per million splenocytes” value was “—”. Moreover, the “A24: average IFN-γ spots forming cells per million splenocytes” value in test [5] is recorded as “—”.
Consider ESADMSIGVTVIKNNMI, for which the “DR3 … per million splenocytes” value in test [1] was “—”. The “B7: average IFN-γ spots forming cells per million splenocytes” value in test [2] was “—”. For the same sequence, the “DR4 … per million splenocytes” value in test [3] is on record as “—”. Further, in test [4], the “DR2 … per million splenocytes” value is 75 ± 10(0.1) IFN-γ spots forming cells per million splenocytes and the “DR2: lowest concentration” value was 75 ± 10(0.1) μg/ml. Further, in test [5], the “A24: average IFN-γ spots forming cells per million splenocytes” value is listed as “—”.
Consider ESKSMKLRTQIPAEMLA, for which the “DR3 … per million splenocytes” value in test [1] is “—”. For the same sequence, in test [2], the “B7: average IFN-γ spots forming cells per million splenocytes” value is listed as “—”. In addition, in test [3], the “DR4 … per million splenocytes” value is on record as “—”. Besides, in test [4], the “DR2 … per million splenocytes” value is given as 84 ± 20(0.1) IFN-γ spots forming cells per million splenocytes and the “DR2: lowest concentration” value is given as 84 ± 20(0.1) μg/ml. The “A24: average IFN-γ spots forming cells per million splenocytes” value in test [5] is reported as “—”.
Take KYPITADKRITEMIPER: in test [1], the “DR3 … per million splenocytes” value is given as 499 ± 4(0.1) IFN-γ spots forming cells per million splenocytes and the “DR3: lowest concentration” value is 499 ± 4(0.1) μg/ml. In addition, the “B7: average IFN-γ spots forming cells per million splenocytes” value in test [2] is recorded as “—”. Besides, the “DR4 … per million splenocytes” value in test [3] is recorded as “—”. Besides, the “DR2 … per million splenocytes” value in test [4] is listed as “—”. In addition, the “A24: average IFN-γ spots forming cells per million splenocytes” value in test [5] was “—”.
As to LLRHFQKDAKVLFLNWG, in test [1], the “DR3 … per million splenocytes” value is recorded as 444 ± 14(0.1) IFN-γ spots forming cells per million splenocytes and the “DR3: lowest concentration” value is listed as 444 ± 14(0.1) μg/ml. In addition, the “B7: average IFN-γ spots forming cells per million splenocytes” value in test [2] is recorded as “—”. For the same sequence, the “DR4 … per million splenocytes” value in test [3] is recorded as “—”. In addition, the “DR2 … per million splenocytes” value in test [4] is recorded as “—”. Moreover, the “A24: average IFN-γ spots forming cells per million splenocytes” value in test [5] is reported as “—”.
Take RFLRVRDQRGNVLLSPE: the “DR3 … per million splenocytes” value in test [1] is recorded as “—”. Also, in test [2], the “B7: average IFN-γ spots forming cells per million splenocytes” value is recorded as 184 ± 3 IFN-γ spots forming cells per million splenocytes and the “B7: lowest concentration of peptide giving positive ELISpot response in peptide titration” value was “(0.1) μg/ml”. Further, the “DR4 … per million splenocytes” value in test [3] is “—”. In test [4], the “DR2 … per million splenocytes” value is on record as “—”. Besides, in test [5], the “A24: average IFN-γ spots forming cells per million splenocytes” value is reported as “—”.
